The text below walks through data of patent publication USRE49687E1, “Thienopyrimidine and thienopyridine compounds and methods of use thereof” (The Regents of The University of Michigan, priority 2014, dated 2023).

The target of one test is T1, menin (Homo sapiens, UniProt O00255).
T1 sequence (O00255 1-610): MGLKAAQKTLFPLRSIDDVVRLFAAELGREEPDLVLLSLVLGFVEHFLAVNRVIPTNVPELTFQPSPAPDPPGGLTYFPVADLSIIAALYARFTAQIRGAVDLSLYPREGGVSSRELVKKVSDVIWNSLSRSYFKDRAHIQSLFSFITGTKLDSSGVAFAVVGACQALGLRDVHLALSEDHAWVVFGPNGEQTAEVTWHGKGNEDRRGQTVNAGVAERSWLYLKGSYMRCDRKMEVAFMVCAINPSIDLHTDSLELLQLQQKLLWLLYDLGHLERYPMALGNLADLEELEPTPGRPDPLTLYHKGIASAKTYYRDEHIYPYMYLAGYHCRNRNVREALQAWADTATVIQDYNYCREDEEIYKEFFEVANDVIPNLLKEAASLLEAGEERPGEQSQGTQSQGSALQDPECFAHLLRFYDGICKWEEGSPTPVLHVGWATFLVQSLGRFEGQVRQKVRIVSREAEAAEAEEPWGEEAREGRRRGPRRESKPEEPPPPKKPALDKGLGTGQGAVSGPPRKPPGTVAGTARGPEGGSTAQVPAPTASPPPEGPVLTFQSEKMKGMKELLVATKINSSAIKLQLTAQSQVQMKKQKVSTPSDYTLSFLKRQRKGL
Put plainly: Crystal structure of menin in complex with compound. The conditions noted are these: FIG. 1.

Test [1] has as its system MV4; 11 cells (harboring MLL-AF4 fusion protein). Put plainly: In vivo xenograft study with MV4;11 cells injected subcutaneously. The following applies: once daily, i.p., 25 mg/kg; treatment initiated when tumors reached ~100 mm^3. Set-up: species or system CB17 SCID mice. The source says: FIG. 3 depicts in vivo xenograft studies with MV4; 11 cells (harboring MLL-AF4 fusion protein) injected subcutaneously into CB17 SCID mice.
Efficacy Study in Mouse Xenograft Tumor Model.
Immunodeficient mice, such as 8-10 week-old female nude (nu/nu) mice, are used for in vivo efficacy studies in accordance with the guidelines approved by IACUC. Leukemia cells, such as human MV4-11 leukemia cells available from ATCC, are implanted subcutaneously via needle into female nude mice (5×10^6 cells/mouse). When the tumor reaches a size of approximately 100 mm^3 in mice, the tumor-bearing mice are randomly assigned to a vehicle control or compound treatment group (8 animals per group). Animals are treated with a compound of the present invention by oral gavage or intraperitoneal injection in an appropriate amount and frequency as can be determined by the skilled artisan without undue experimentation. Subcutaneous tumor volume in nude mice and mice body weight are measured twice weekly. Tumor volumes are calculated by measuring two perpendicular diameters with calipers (V=(length×width^2)/2). Percentage tumor growth inhibition (% TGI=1−[change of tumor volume in treatment group/change of tumor volume in control group]*100) is used to evaluate anti-tumor efficacy. Statistical significance is evaluated using a one-tailed, two sample t test. P<0.05 is considered statistically significant.

In a further test the target is T2, menin-MLL interaction (Homo sapiens, UniProt O00255).
T2 sequence (O00255 1-610): T1 sequence (O00255 1-610)
Put plainly: Fluorescence polarization (FP) competition assay of the menin-MLL interaction. It is filed as binding. The conditions noted are these: inhibition of the menin-MLL interaction; read-out: IC50 values for Table 1 inhibitors of menin. A general note: Fluorescence polarisation rises when a labelled molecule tumbles more slowly, as on binding a larger partner.

Each structure is given as a SMILES string. Values joined by “and” are separate entries in the source; they are usually repeats but may differ in a detail not shown here. Equal entries are not always repeated. Some results are limits rather than exact numbers.

Broadly, the IC50 is the point on the concentration scale where inhibition reaches its midpoint. In the case of `C=CS(=O)(=O)N1CCN(CCn2c(C#N)cc3c(C)c(CN4CCC(Nc5ncnc6sc(CC(F)(F)F)cc56)CC4)ccc32)CC1` [Compound 3, 4-methyl-1-(2-(4-vinylsulfonylpiperazin-1-yl)ethyl)-5-((4-((6-(2,2,2-trifluoroethyl)thieno[2,3-d]pyrimidin-4-yl)amino)piperidin-1-yl)methyl)-1H-indole-2-carbonitrile], the “covalent binding of the compound to a Cys residue on menin” value on menin is on record as “covalent binding of the compound to a Cys residue on menin”. The tumor volume entry in test [1] was “strong reduction of tumor volume”. Further, the IC50 on menin-MLL interaction was under 30 nM.
Regarding `C=CC(=O)Nc1ccc(C2(Cn3c(C#N)cc4c(C)c(CN5CCC(Nc6ncnc7sc(CC(F)(F)F)cc67)CC5)ccc43)CC2)cn1` [Compound 216], the IC50 at menin-MLL interaction fell in the range of 100 to 1000 nM.
Same read-out and setting: next, `C=CC(=O)N1C2CCC1CN(CCn1c(C#N)cc3c(C)c(CN4CCC(Nc5ncnc6sc(CC(F)(F)F)cc56)CC4)ccc31)C2` [Compound 24]: 30 to 100 nM; `C=CC(=O)N1CCN(CCn2c(C#N)cc3cc(CN4CCC(Nc5ccnc6sc(CC(F)(F)F)cc56)CC4)ccc32)CC1` [Compound 1]: 30 to 100 nM.
As for `C=CC(=O)N1CCC2(CCN(CCn3c(C#N)cc4c(C)c(CN5CCC(Nc6ncnc7sc(CC(F)(F)F)cc67)CC5)ccc43)CC2)C1` [Compound 170], the IC50 at menin-MLL interaction lay within 30 to 100 nM.
The same measure, in the same setting: next, `C=CC(=O)NCc1cc(Cn2c(C#N)cc3c(C)c(CN4CCC(Nc5ncnc6sc(CC(F)(F)F)cc56)CC4)ccc32)n[nH]1` [Compound 10]: 30 to 100 nM.
`C=CS(=O)(=O)N1CC2CCC(C1)N2CCn1c(C#N)cc2c(C)c(CN3CCC(Nc4ncnc5sc(CC(F)(F)F)cc45)CC3)ccc21` [Compound 18]: on menin-MLL interaction, the IC50 was < 30 nM and 30 to 100 nM.
In the case of `C=CC(=O)N1CCC2(CN(CCn3c(C#N)cc4c(C)c(CN5CCC(Nc6ncnc7sc(CC(F)(F)F)cc67)CC5)ccc43)C2)C1` [Compound 176], the half-maximal inhibitory concentration (IC50) on menin-MLL interaction fell in the range of 30 to 100 nM.
With `C=CC(=O)N[C@@H]1CCN(CCn2c(C#N)cc3c(C)c(CN4CCC(Nc5ncnc6sc(CC(F)(F)F)cc56)CC4)ccc32)C1` [Compound 32], the half-inhibitory concentration (IC50) on menin-MLL interaction was under 30 nM.
As for `Cc1c(CN2CCC(Nc3ncnc4sc(CC(F)(F)F)cc34)CC2)ccc2c1cc(C#N)n2CCc1ccc(P(C)(C)=O)cc1` [Compound 202], at menin-MLL interaction, the IC50 is 30 to 100 nM.
Regarding `Cc1c(CN2CCC(Nc3ncnc4sc(CC(F)(F)F)cc34)CC2)ccc2c1cc(C#N)n2CCN1CC2CNCC2C1` (stereo not shown) [Compound 167], on menin-MLL interaction, the IC50 is under 30 nM.
The same measure, in the same setting: next, `CCC(=O)Nc1ccc(C(C)(O)Cn2c(C#N)cc3c(C)c(CN4CCC(Nc5ncnc6sc(CC(F)(F)F)cc56)CC4)ccc32)cn1` (stereo not shown) [Compound 212]: 30 to 100 nM.
Same read-out and setting: next, `[2H]C([2H])=C([2H])C(=O)Nc1ccc(CCn2c(C#N)cc3c(C)c(CN4CCC(Nc5ncnc6sc(CC(F)(F)F)cc56)CC4)ccc32)cc1` [Compound 241]: 30 to 100 nM; `C=CC(=O)N1CCC2(CCN(CCn3c(C#N)cc4c(C)c(CN5CCC(Nc6ncnc7sc(CC(F)(F)F)cc67)CC5)ccc43)C2)C1` (stereo not shown) [Compound 172]: 30 to 100 nM; `C=CC(=O)N1CCC(Cn2c(C#N)cc3c(C)c(CN4CCC(Nc5ncnc6sc(CC(F)(F)F)cc56)CC4)ccc32)CC1` [Compound 233]: 30 to 100 nM.
On the same count and under the same terms, the value for `C=CC(=O)Nc1cccc(CCn2c(C#N)cc3c(C)c(CN4CCC(Nc5ncnc6sc(CC(F)(F)F)cc56)CC4)ccc32)c1` [Compound 190] was 100 to 1000 nM; that for `CCC(=O)Nc1ccc(CCn2c(C#N)cc3c(C)c(CN4CCC(Nc5ncnc6sc(CC(F)(F)F)cc56)CC4)ccc32)cn1` [Compound 254] was 100 to 1000 nM.
Turning to `C=CC(=O)N1CC2(CCN(CCn3c(C#N)cc4c(C)c(CN5CCC(Nc6ncnc7sc(CC(F)(F)F)cc67)CC5)ccc43)C2)C1` [Compound 182], the IC50 at menin-MLL interaction lay in the range of 30 to 100 nM.
On the same count and under the same terms, next, `C=CS(=O)(=O)N1CC2CC1CN2CCn1c(C#N)cc2c(C)c(CN3CCC(Nc4ncnc5sc(CC(F)(F)F)cc45)CC3)ccc21` (stereo not shown) [Compound 17, 4-methyl-5-((4-((6-(2,2,2-trifluoroethyl)thieno[2,3-d]pyrimidin-4-yl)amino)piperidin-1-yl)methyl)-1-(2-(5-(vinylsulfonyl)-2,5-diazabicyclo[2.2.1]heptan-2-yl)ethyl)-1H-indole-2-carbonitrile]: 100 to 1000 nM.
The same measure, in the same setting: next, `C=CS(=O)(=O)N1CCC(CCn2c(C#N)cc3c(C)c(CN4CCC(Nc5ncnc6sc(CC(F)(F)F)cc56)CC4)ccc32)CC1` [Compound 8]: under 30 nM; `C=CC(=O)N1CC2(CN(CCn3c(C#N)cc4c(C)c(CN5CCC(Nc6ncnc7sc(CC(F)(F)F)cc67)CC5)ccc43)C2)C1` [Compound 174]: 30 to 100 nM.
The same measure, in the same setting: the value for `[2H]C([2H])=C([2H])C(=O)Nc1ccc(C(O)Cn2c(C#N)cc3c(C)c(CN4CCC(Nc5ncnc6sc(CC(F)(F)F)cc56)CC4)ccc32)cn1` (stereo not shown) [Compound 242] was 30 to 100 nM; that for `C=CC(=O)N1CC2(CCN(CCn3c(C#N)cc4c(C)c(CN5CCC(Nc6ncnc7sc(CC(F)(F)F)cc67)CC5)ccc43)CC2)C1` [Compound 184] was under 30 nM.
Turning to `CP(C)(=O)c1cc2cc(CN3CCC(Nc4ncnc5sc(CC(F)(F)F)cc45)CC3)ccc2[nH]1` [Compound 205], the IC50 on menin-MLL interaction was over 1000 nM.
Consider `C=CC(=O)Nc1ccc(C(C)(O)Cn2c(C#N)cc3c(C)c(CN4CCC(Nc5ncnc6sc(CC(F)(F)F)cc56)CC4)ccc32)cc1` (stereo not shown) [Compound 115], for which the IC50 on menin-MLL interaction was 30 to 100 nM.
Still for that read-out and setting: the value for `C/C=C/C(=O)N1CCN(CCn2c(C#N)cc3c(C)c(CN4CCC(Nc5ncnc6sc(CC(F)(F)F)cc56)CC4)ccc32)CC1` [Compound 4] was under 30 nM.
Take `CCC(=O)Nc1ccc(CCn2c(C#N)cc3c(C)c(CN4CCC(Nc5ncnc6sc(CC(F)(F)F)cc56)CC4)ccc32)cc1` [Compound 102]: the concentration for half-maximal inhibition (IC50) on menin-MLL interaction is under 30 nM.
As to `C=CC(=O)Nc1ccc([C@](C)(O)Cn2c(C#N)cc3c(C)c(CN4CCC(Nc5ncnc6sc(CC(F)(F)F)cc56)CC4)ccc32)cc1` [Compound 243], the IC50 at menin-MLL interaction lay within 30 to 100 nM.
Turning to `C=CC(=O)Nc1ccc(C(C)(O)Cn2c(C#N)cc3c(C)c(CN4CCC(Nc5ncnc6sc(CC(F)(F)F)cc56)CC4)ccc32)cn1` (stereo not shown) [Compound 209], at menin-MLL interaction, the IC50 was in the range of 30 to 100 nM.
